Assays:
[1] = Solubility of the activity-assay substrate in water; type: physicochemical; conditions: required DMSO to be dissolved
Method: A 10 mM stock of substrate was prepared by dissolving 5 mg of 4-methylumbelliferyl-N-acetyl-α-D-glucosaminide in 250 μL of 100% DMSO first. Naglu activity assay reaction buffer was then added to bring the volume up to […]. This 10 mM Substrate stock was further diluted 10-fold with reaction buffer to make the 1 mM substrate solution. Un-used 10 mM substrate stock was stored in −80° C. for up to one month. Samples and controls were pre-diluted in reaction buffer. 10 μL of each pre-diluted sample/control was applied in duplicate wells on a black clear bottom 96 well plate. 10 μL of reaction buffer was added to two wells of the plate and served as reaction buffer control. 75 μL of 1 mM substrate was added to each well that contained 10 μL of sample/control. The plate was sealed with plate sealer and wrapped with aluminum foil. The plate was placed in 37° C. Jitterbug and incubated with shaking setting at #1 for 1 hour. Prior to the completion of incubation, standards were prepared by diluting the stock (1000 μM) of 4-methlyumbelliferyl sodium salt down to 25 μM, 12.5 μM, 6.25 μM, 3.12 μM, 1.56 μM, 0.78 μM, 0 μM with water. At the completion of incubation, 85 μL of each of the seven standards was loaded on the plate in duplicate. […] The plate was measured for fluorescence at 360/460 (Excitation/Emission) using a Molecular Devices SpectraMax Plus M2 plate reader.

[2] = system: MSP III-B derived fibroblasts; conditions: in vitro, Malinowska et al. (2009); cited from earlier work

solubility in water [1]	Structure (SMILES)	effect on GAG synthesis [2]
very low solubility in water	CC(=O)N[C@H]1[C@@H](Oc2ccc3c(C)cc(=O)oc3c2)O[C@H](CO)[C@@H](O)[C@@H]1O [4-methylumbelliferyl-N-acetyl-α-D-glucosaminide]	–
–	O=c1c(-c2ccc(O)cc2)coc2cc(O)cc(O)c12 [gensteine]	inhibit GAG synthesis

From patent US9708590B2, “Crystal structure of human α-N-acetylglucosaminidase” (Shire Human Genetic Therapies, Inc., priority 2010, dated 2017)
